Experimental data: patent US20170008928A1, “NOVEL PEPTIDES AND PEPTIDE DERIVATIVES AND USES THEREOF” (Novo Nordisk A/S, priority 2015, published 2017)
Like-named read-outs stand apart in the source and are kept apart here. Starred links: 1 amine or outer side, 2 acyl side, 3 side chain; linkers in the order of their positions; H or OH if unused. Non-standard residues stand in square brackets, D forms with d. Residues, ends and D or L forms follow the SMILES beside them. *: point of attachment. Phe(4-CH2SO3H) = N[C@@H](Cc1ccc(CS(=O)(=O)O)cc1)C(=O)O; sY = N[C@@H](Cc1ccc(OS(=O)(=O)O)cc1)C(=O)O; C18 diacid = O=C(O)CCCCCCCCCCCCCCCCC(=O)*; C16 diacid = O=C(O)CCCCCCCCCCCCCCC(=O)*; γGlu = O=C(O)[C@H](CCC(=O)[*:2])N[*:1]; βAsp = O=C(O)[C@H](CC(=O)[*:2])N[*:1]; NMeF = CN[C@@H](Cc1ccccc1)C(=O)O; dNMeD = CN[C@H](CC(=O)O)C(=O)O; Nle = CCCC[C@H](N)C(=O)O; AEEA = NCCOCCOCC(=O)O

Columns and labels:
[1] = target: T1, human cholecystokinin-2 receptor (CCK-2R) (Homo sapiens, UniProt P32239); assay: In vitro receptor binding to CCK-2R, SPA displacement of [125I]-CCK-8s from plasma membranes
T1 construct: host or cells: 1321-N1 cells (plasma membranes prepared by Evotec AG Hamburg)
T1 sequence (P32239 1-447): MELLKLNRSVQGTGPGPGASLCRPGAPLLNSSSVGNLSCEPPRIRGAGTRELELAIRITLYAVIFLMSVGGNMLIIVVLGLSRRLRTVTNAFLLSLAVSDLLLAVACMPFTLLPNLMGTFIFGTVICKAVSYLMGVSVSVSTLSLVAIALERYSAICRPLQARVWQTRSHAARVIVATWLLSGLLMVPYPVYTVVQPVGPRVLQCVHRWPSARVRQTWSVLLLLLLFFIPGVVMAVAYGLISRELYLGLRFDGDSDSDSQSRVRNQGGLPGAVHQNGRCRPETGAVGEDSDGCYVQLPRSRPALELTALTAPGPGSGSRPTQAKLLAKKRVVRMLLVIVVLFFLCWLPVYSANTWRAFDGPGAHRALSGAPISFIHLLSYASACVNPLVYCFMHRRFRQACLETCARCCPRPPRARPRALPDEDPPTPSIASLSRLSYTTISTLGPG

[2] = target: T2, human cholecystokinin-1 receptor (CCK-1R) (Homo sapiens, UniProt P32238); assay: In vitro receptor binding to CCK-1R, SPA displacement of [125I]-CCK-8s from plasma membranes; conditions: for CCK-1R binding selectivity (IC50 (CCK-2R)/IC50 (CCK-1R)): ratio of binding IC50 values, >1 = preference for CCK-1R
T2 construct: host or cells: 1321-N1 cells
T2 sequence (P32238 1-428): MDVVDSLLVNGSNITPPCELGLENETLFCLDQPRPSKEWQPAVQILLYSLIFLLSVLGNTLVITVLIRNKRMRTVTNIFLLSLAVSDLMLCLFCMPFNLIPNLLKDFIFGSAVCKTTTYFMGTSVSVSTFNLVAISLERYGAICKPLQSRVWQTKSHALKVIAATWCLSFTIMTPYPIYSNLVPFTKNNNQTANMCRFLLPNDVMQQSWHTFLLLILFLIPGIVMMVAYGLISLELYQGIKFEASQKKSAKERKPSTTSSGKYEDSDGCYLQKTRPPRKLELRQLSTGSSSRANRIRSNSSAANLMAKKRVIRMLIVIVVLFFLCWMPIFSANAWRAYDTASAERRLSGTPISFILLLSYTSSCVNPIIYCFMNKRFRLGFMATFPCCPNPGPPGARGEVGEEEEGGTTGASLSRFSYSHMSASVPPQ
Protocol: The in vitro binding affinity is a measure of the strength of attraction between a receptor and its ligand.
Displacement of radio ligand was measured as reduction in light emission from SPA beads.
The cells used in these assays were 1321-N1 cells stably expressing the CCK-1R or the CCK-2R (Perkin Elmer product numbers ES-530-A and ES-531-A, respectively see www.perkinelmer.com/Catalog/Product/ID/ES-530-A or -ES-531-A, respectively).
The cells were cultured in an incubator (95% RH (relative humidity), 5% (of standard atmospheric pressure) CO2, 37° C.) in cell culture medium (DMEM (Lonza catalogue BE-12-604F/U1), with 10% (v/v) Foetal Calf Serum (FCS, Gibco catalogue 16140-071), 1% (w/w) Sodium pyruvate (Gibco catalogue 11360-039), 500 μg/ml Geneticin® (G418) (Gibco catalogue 10131-027), 25 μg/ml Zeocin™ (Invitrogen catalogue R250-05), 1% (w/w) Pen/Strep (Gibco catalogue 15140-122)).
Plasma membranes were prepared by Evotec AG Hamburg by use of the ParrBomb (#4635, Parr Instrument Company). Cells were lysed with a lysis buffer (50 mM Tris, 2.5 mM EDTA, pH7) with added protease inhibitors (Complete Proteaseinhibitors EDTA-free (#05056489001, Roche), 1 tablet per 50 mL lysis buffer). The membrane fraction was separated by centrifugation. First, the cell lysate was centrifuged at 1000×g for 10 minutes at 4° C. The pellet was discarded and the supernatant was then centrifuged at 100.000×g for 30 minutes at 4° C. The supernatant was discarded and the pellet was re-suspended in 1 ml/5×10^8 cells ice cold membrane buffer (50 mM Tris, 320 mM Sucrose and Complete Proteaseinhibitors EDTA-free (#05056489001, Roche); pH7.4) and homogenised with dounce homogeniser. The protein concentration was determined using the Pierce™ BCA Protein Assay Kit according to kit manual, and the membrane preparation was adjust to the desired protein concentration with membrane buffer and aliquoted into pre-cooled tubes, snap-frozen in liquid nitrogen, and stored at −80° C.
CCK receptor binding assays were performed in 96-well Optiplates (Cat #6005290, PerkinElmer, Waltham, Mass., USA) in a total volume of 200 μl per well. CCK derivatives in 80% DMSO stock solutions of 800 μM were serially diluted […] in assay buffer (50 mM Tris/HCl, 4.5 mM MgCl2, […], 0.02% Tween 20, 0.25% ovalbumin, 0.1% pluronic F-68, pH 7.4) to final assay concentrations ranging from 10^−5 M (ten μM) to 10^−12 M (one pM).
Fifty μl of reference or test compounds were added to the Optiplates (using technical duplicates, i.e. two wells of each sample, one data point being the average of two wells), followed by addition of 150 μl of the mixture of SPA bead, radio ligand, and plasma membrane. The plates were sealed and incubated in the dark at +22° C. for 2 hours on a IKA MTS plate shaker (IKA-Werke D-79219 Staufen) set at 300 rpm and thereafter centrifuged at 1500 rpm for 10 minutes in a Heraeus Multifuge 3s centrifuge. SPA bead light emission was measured in a TopCount NXT (PerkinElmer) for 2 min/well after a delay of 60 min.
As a measure of compound affinity, calculations were performed in order to determine the half maximal inhibitory concentration (the IC50 value).
The data from the TopCounter were given as counts per minute (CPM). The CPM was plotted as a function of the concentration of compound. Dose-response curves were obtained, and IC50 values were calculated, by a nonlinear three-parameter logistic equation (log(agonist) vs response) with hillslope=−1, and shared top and bottom using the software programme GraphPad Prism v 6.0 (Graph Pad software, La Jolla, Calif., USA). The highest dose tested was 10^−5 M (1×10^7 pM).
The preference of a specific compound for the CCK-1 receptor, or the CCK-1R selectivity, may be defined as IC50 (CCK-2R)/IC50 (CCK-1R).
A minimum of three biological replicates was measured for each test compound on separate assay plates.

[3] = target: T1, human cholecystokinin-2 receptor (CCK-2R); assay: In vitro potency on CCK-2R, whole cell functional assay (IP1 accumulation, IP-One HTRF); format: cell-based
[4] = target: T2, human cholecystokinin-1 receptor (CCK-1R); assay: In vitro potency on CCK-1R, whole cell functional assay (IP1 accumulation, IP-One HTRF); format: cell-based
[5] = ratio of functional EC50 values, >1 = preference for CCK-1R
[6] = 1321-N1 cells stably expressing CCK-1R, IP1 accumulation, average of min. three replicates, read-out: EC50 (CCK-1R)

SMILES | IC50 [1] [nM] | IC50 [2] [nM] | EC50 [3] [nM] | EC50 [4] [nM] | CCK-1R binding selectivity (IC50 (CCK-2R)/IC50 (CCK-1R)) [2] | CCK-1R selectivity (EC50 (CCK-2R)/EC50 (CCK-1R)) [4] | CCK-1R selectivity (EC50 (CCK-2R)/EC50 (CCK-1R)) [4, 5] | EC50 [4, 6] [nM] | IC50 ([2]; displacement of [125I]-CCK-8s, plasma membranes of 1321-N1 cells expressing CCK-1R, read-out: IC50 (CCK-1R)) [nM] | EC50 ([3]; 1321-N1 cells stably expressing CCK-2R, IP1 accumulation, highest dose tested 1×10^6 pM, read-out: EC50 (CCK-2R)) [nM]
CCCC[C@H](NC(=O)[C@H](Cc1c[nH]c2ccccc12)NC(=O)CNC(=O)[C@H](CC(C)C)NC(=O)[C@H](Cc1ccc(CS(=O)(=O)O)cc1)NC(=O)[C@H](CC(=O)O)NC(=O)COCCOCCNC(=O)COCCOCCNC(=O)CC[C@H](NC(=O)CCCCCCCCCCCCCCC(=O)O)C(=O)O)C(=O)N(C)[C@H](CC(=O)O)C(=O)N(C)[C@@H](Cc1ccccc1)C(N)=O [Example 6, 2-[2-[2-[[2-[2-[2-[[(4S)-4-Carboxy-4-(15-carboxypentadecanoylamino)butanoyl]amino]ethoxy]ethoxy]acetyl]amino]ethoxy]ethoxy]acetyl-Asp-Phe(4-sulfomethyl)-Leu-Gly-Trp-Nle-DMeAsp-MePhe-amide] ({C16 diacid-γGlu-AEEA-AEEA}-D[Phe(4-CH2SO3H)]LGW[Nle][dNMeD][NMeF]-NH2) | > 10000 | 0.2 | > 1000 | 0.2 | – | – | – | – | – | –
CC(C)C[C@H](NC(=O)[C@H](Cc1ccc(OS(=O)(=O)O)cc1)NC(=O)[C@H](CC(=O)O)NC(=O)COCCOCCNC(=O)COCCOCCNC(=O)CC[C@H](NC(=O)CCCCCCCCCCCCCCCCC(=O)O)C(=O)O)C(=O)NCC(=O)N[C@@H](Cc1c[nH]c2ccccc12)C(=O)N[C@H](C(=O)N(C)[C@H](CC(=O)O)C(=O)N(C)[C@@H](Cc1ccccc1)C(N)=O)C(C)C [Example 14, 2-[2-[2-[[2-[2-[2-[[(4S)-4-Carboxy-4-(17-carboxyheptadecanoylamino)butanoyl]amino]ethoxy]ethoxy]acetyl]amino]ethoxy]ethoxy]acetyl-Asp-sTyr-Leu-Gly-Trp-Val-DMeAsp-MePhe-amide] ({C18 diacid-γGlu-AEEA-AEEA}-D[sY]LGWV[dNMeD][NMeF]-NH2) | 6400 | 0.31 | 730 | 0.14 | 21000 | 5100 | – | – | – | –
CCCC[C@H](NC(=O)[C@H](Cc1c[nH]c2ccccc12)NC(=O)CNC(=O)[C@H](Cc1ccccc1)NC(=O)[C@H](Cc1ccc(OS(=O)(=O)O)cc1)NC(=O)[C@H](CC(=O)O)NC(=O)COCCOCCNC(=O)COCCOCCNC(=O)CC[C@H](NC(=O)CCCCCCCCCCCCCCCCC(=O)O)C(=O)O)C(=O)N(C)[C@H](CC(=O)O)C(=O)N(C)[C@@H](Cc1ccccc1)C(N)=O [Example 44, 2-[2-[2-[[2-[2-[2-[[(4S)-4-Carboxy-4-(17-carboxyheptadecanoylamino)butanoyl]amino]ethoxy]ethoxy]acetyl]amino]ethoxy]ethoxy]acetyl-Asp-sTyr-Phe-Gly-Trp-Nle-DMeAsp-MePhe-amide] ({C18 diacid-γGlu-AEEA-AEEA}-D[sY]FGW[Nle][dNMeD][NMeF]-NH2) | – | – | – | – | 87000 | – | 960 | – | – | –
CCCC[C@H](NC(=O)[C@H](Cc1c[nH]c2ccccc12)NC(=O)CNC(=O)[C@H](CO)NC(=O)[C@H](Cc1ccc(OS(=O)(=O)O)cc1)NC(=O)[C@H](CC(=O)O)NC(=O)COCCOCCNC(=O)COCCOCCNC(=O)CC[C@H](NC(=O)CCCCCCCCCCCCCCCCC(=O)O)C(=O)O)C(=O)N(C)[C@H](CC(=O)O)C(=O)N(C)[C@@H](Cc1ccccc1)C(N)=O [Example 45, 2-[2-[2-[[2-[2-[2-[[(4S)-4-Carboxy-4-(17-carboxyheptadecanoylamino)butanoyl]amino]ethoxy]ethoxy]acetyl]amino]ethoxy]ethoxy]acetyl-Asp-sTyr-Ser-Gly-Trp-Nle-DMeAsp-MePhe-amide] ({C18 diacid-γGlu-AEEA-AEEA}-D[sY]SGW[Nle][dNMeD][NMeF]-NH2) | – | – | – | – | 82000 | – | 3000 | 0.31 | – | –
CCCC[C@H](NC(=O)[C@H](Cc1c[nH]c2ccccc12)NC(=O)CNC(=O)[C@H](C)NC(=O)[C@H](Cc1ccc(OS(=O)(=O)O)cc1)NC(=O)[C@H](CC(=O)O)NC(=O)COCCOCCNC(=O)COCCOCCNC(=O)CC[C@H](NC(=O)CCCCCCCCCCCCCCCCC(=O)O)C(=O)O)C(=O)N(C)[C@H](CC(=O)O)C(=O)N(C)[C@@H](Cc1ccccc1)C(N)=O [Example 46, 2-[2-[2-[[2-[2-[2-[[(4S)-4-Carboxy-4-(17-carboxyheptadecanoylamino)butanoyl]amino]ethoxy]ethoxy]acetyl]amino]ethoxy]ethoxy]acetyl-Asp-sTyr-Ala-Gly-Trp-Nle-DMeAsp-MePhe-amide] ({C18 diacid-γGlu-AEEA-AEEA}-D[sY]AGW[Nle][dNMeD][NMeF]-NH2) | – | – | – | – | 4100 | – | 440 | 0.22 | – | –
CCCC[C@H](NC(=O)[C@H](Cc1ccc(CS(=O)(=O)O)cc1)NC(=O)C[C@H](N)C(=O)O)C(=O)NCC(=O)N[C@@H](Cc1c[nH]c2ccccc12)C(=O)N[C@@H](CCCC)C(=O)N(C)[C@H](CC(=O)O)C(=O)N(C)[C@@H](Cc1ccccc1)C(N)=O [Example 75, bAsp-Phe(4-sulfomethyl)-Nle-Gly-Trp-Nle-DMeAsp-MePhe-amide] (βAsp-[Phe(4-CH2SO3H)][Nle]GW[Nle][dNMeD][NMeF]-NH2) | – | – | – | – | 59000 | – | – | 0.19 | 0.049 | > 1000
